Results from article PMC12930396, “Positive modulators of N-methyl-D-aspartate receptor: structure–activity relationship study on steroidal C-17 and C-20 oxime ethers” (RSC Advances, 2026).
“Also recorded” adds a separate entry of the source.

What was measured:
[1] = molecular target: T1, GluN1/GluN2B receptors (Rattus norvegicus, UniProt P35439+Q00960); test: Patch-clamp: modulation of glutamate-induced currents of recombinant GluN1/GluN2B receptors expressed in HEK293 cells; type: cell-based; conditions: for h ± SEM (apparent Hill coefficient): concentration-response fit; for h ± SEM (apparent Hill coefficient) / EC50 / Emax: mean ± SEM; for EC50: half-maximal potentiation of currents evoked by 1 µM glutamate; for EC50 / Emax / inhibition at 3 µM: HEK293; for Emax: maximal potentiation of currents evoked by 1 µM glutamate and 30 µM glycine; for Modulatory profile at NMDARs: GluN1/GluN2B in HEK293; for inhibition at 3 µM: at 3 µM compound, read-out: NAM effect (degree of inhibition); for inhibition at 3 µM / PAM effect (degree of potentiation): 1 µM glutamate
T1 construct: expressed in transfected cells; host or cells: HEK293 cells (ATCC No. CRL-1573)
T1 sequence (Q00960 27-1482, other chains not shown): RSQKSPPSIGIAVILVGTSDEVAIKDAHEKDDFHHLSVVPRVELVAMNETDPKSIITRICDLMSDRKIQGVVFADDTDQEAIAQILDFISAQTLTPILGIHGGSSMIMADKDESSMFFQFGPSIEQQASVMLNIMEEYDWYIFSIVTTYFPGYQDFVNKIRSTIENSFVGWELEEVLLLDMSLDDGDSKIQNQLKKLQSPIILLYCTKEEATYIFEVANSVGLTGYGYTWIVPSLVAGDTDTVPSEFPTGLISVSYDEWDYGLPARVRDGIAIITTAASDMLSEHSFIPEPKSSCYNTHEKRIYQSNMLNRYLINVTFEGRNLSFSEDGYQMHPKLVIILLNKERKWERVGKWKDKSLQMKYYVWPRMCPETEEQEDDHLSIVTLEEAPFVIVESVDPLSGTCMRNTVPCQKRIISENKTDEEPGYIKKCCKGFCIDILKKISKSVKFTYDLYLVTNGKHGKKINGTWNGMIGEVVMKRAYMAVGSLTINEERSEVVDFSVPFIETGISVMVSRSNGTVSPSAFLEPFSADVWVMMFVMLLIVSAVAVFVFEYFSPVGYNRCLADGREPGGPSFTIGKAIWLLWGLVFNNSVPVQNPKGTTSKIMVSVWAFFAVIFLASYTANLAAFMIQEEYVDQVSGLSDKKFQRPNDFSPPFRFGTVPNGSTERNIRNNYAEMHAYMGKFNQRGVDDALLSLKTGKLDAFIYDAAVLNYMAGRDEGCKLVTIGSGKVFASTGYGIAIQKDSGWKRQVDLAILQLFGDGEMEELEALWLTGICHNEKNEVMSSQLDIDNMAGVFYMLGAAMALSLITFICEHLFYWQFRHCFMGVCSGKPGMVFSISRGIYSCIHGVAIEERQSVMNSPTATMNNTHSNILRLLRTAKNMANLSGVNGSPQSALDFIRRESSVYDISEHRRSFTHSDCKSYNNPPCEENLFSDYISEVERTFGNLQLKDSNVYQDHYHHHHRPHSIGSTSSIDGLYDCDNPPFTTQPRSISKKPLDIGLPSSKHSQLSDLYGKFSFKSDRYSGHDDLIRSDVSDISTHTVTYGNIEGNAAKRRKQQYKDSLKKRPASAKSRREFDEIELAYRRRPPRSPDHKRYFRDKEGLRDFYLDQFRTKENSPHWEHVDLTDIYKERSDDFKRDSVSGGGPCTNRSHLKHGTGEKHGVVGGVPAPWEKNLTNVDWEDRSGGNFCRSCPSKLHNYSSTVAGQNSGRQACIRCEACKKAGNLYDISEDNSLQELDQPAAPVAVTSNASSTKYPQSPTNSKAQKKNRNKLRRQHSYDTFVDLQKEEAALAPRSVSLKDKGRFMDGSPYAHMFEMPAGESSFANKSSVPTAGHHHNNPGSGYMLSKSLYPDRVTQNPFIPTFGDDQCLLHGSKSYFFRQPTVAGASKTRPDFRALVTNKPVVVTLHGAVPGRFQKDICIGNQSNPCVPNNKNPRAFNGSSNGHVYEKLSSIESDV
Protocol: To investigate the effect of compounds 11–23 on the activity of NMDARs, electrophysiological measurements were performed on HEK293 cells that were co-transfected with cDNAs containing genes encoding for the rat GluN1-1a and GluN2B subunits. The degree of modulation (E; potentiation/inhibition) for the newly synthesized compounds was determined using the following formula: [drawing 1] where Ie is the value of the current amplitude during glutamate and compound coapplication, and Ia is the current amplitude value for glutamate application. […] The results are presented as mean ± standard error of the mean (SEM), with n equal to the number of independent measurements. One-way analysis of variance (ANOVA) was used for multiple comparisons (unless otherwise stated, a value of P ≤ 0.05 was used for the determination of significance).
We have evaluated the relationship between oxime derivatives 11–23 and their modulatory effect on recombinant GluN1/GluN2B receptors. Due to the […] effect of neurosteroid-based PAMs at NMDARs[20,44]
HEK293 cells (American Type Culture Collection, ATCC No. CRL-1573, Rockville, MD, USA) were cultured in Opti-MEM I (Invitrogen, Carlsbad, CA, USA) supplemented with 5% fetal bovine serum (FBS; PAN Biotech, Aidenbach, Germany) at 37 °C in 5% CO2. 24 h before transfection, HEK293 cells were plated in 24-well plates at a density of 2 × 10^5 cells per well. The next day, the cells were transfected with cDNA encoding rat GluN1-1a (GluN1; GenBank accession number U08261)[56] and GluN2B (GenBank accession number M91562)[57] subunits (in the pCI-neo expression vector), along with green fluorescent protein (GFP; in the pQBI 25 vector, Takara, Tokyo, Japan). Briefly, equal amounts (200 ng) of cDNAs encoding GluN1-1a, GluN2B, and GFP were mixed with 0.6 µl of Matra-A reagent (IBA, Gottingen, Germany) in 50 µL of Opti-MEM I and added to confluent HEK293 cells cultured in 24-well plates. After trypsinization, the cells were resuspended in Opti-MEM I containing 1% FBS, supplemented with 20 mM MgCl2, 1 mM D,L-2-amino-5-phosphonovaleric acid, 3 mM kynurenic acid, and 1 µM ketamine, and plated on 30 mm glass coverslips coated with collagen and poly-L-lysine. Transfected cells were identified by GFP epifluorescence. Electrophysiology experiments were performed 24–48 h after transfection.
Whole-cell current recordings, voltage-clamped at a holding potential of −60 mV, were performed at room temperature using a patch-clamp amplifier (Axopatch 200B; Molecular Devices, Sunnyvale, CA, USA) after capacitance and series resistance (<10 MΩ) compensation (80–90%). NMDAR current responses were low-pass filtered at 2 kHz, digitally sampled at 5 kHz, and analysed using pClamp software (version 10.6; Molecular Devices). Patch pipettes (3–5 MΩ), pulled from borosilicate glass, were filled with an intracellular solution (ICS) containing (in mM): 15 CsCl, 10 BAPTA, 3 MgCl2, 1 CaCl2, 120 gluconic acid, 10 HEPES, and 2 ATP-Mg salt (pH adjusted to 7.2 with CsOH). The extracellular solution (ECS) contained (in mM): 160 NaCl, 2.5 KCl, 0.2 EDTA, 10 glucose, 10 HEPES, and 0.7 CaCl2 (pH adjusted to 7.3 with NaOH). NMDAR responses were induced by 1 µM glutamate and 30 µM glycine. 1% DMSO was present in all control and testing solutions. Solution applications were performed using a microprocessor-controlled multibarrel fast-perfusion system with a solution exchange rate around the cells of ∼10 ms.[58]

[2] = in vitro; conditions: pH 7.4; for PAMPA permeability Retention (mass retention): 5 h, 100 µM; for Papp at 5 h, 100 µM: PAMPA
Protocol: Permeability was quantified using permeability coefficients (Pe) and mass retention, the latter representing the proportion of compound retained in the membrane.
Permeation experiments were conducted in polystyrene 96-well filter plates with PVDF membrane pre-coated with structured layers of phospholipids (Corning Gentest™) according to the manufacturer's instructions. Briefly, the plate was warmed to room temperature, and meanwhile, the solutions of the compounds were diluted from 10 mM DMSO stocks to TRIS–HCl buffer pH 7.4 to reach a 100 µM final concentration. The DMSO concentration in the samples was 1%. Then, 300 µL of these solutions were transferred into the donor (receiver) plate wells, and 200 µL of the (TRIS) buffer was added to the acceptor (filter) plate wells. The filter plate and receiver plate were assembled and incubated for 5 h on an orbital shaker (300 rpm). After this, the concentration of the tested substances in both the donor and acceptor compartments was determined with use of LC/MS. Liquid chromatography was performed using an ExionLC AD pump and autosampler from Sciex (Framingham, MA, USA). […] The mobile phase flow rate was 300 µL min^−1. The column Synergi Fusion-RP from Phenomenex (Torrance, CA, USA) was used and was kept at 40 °C during the analysis.

[3] = in vitro; conditions: pH 7.4; for Metabolic stability in rat liver microsomes: 1 h, 10 µM; for half-life at 10 µM: rat, microsomes
Protocol: The reactions were terminated by the addition of four volumes of ice-cold methanol, mixed vigorously, and left at −20 °C for 1h. After that, the samples were centrifuged and the supernatants were analysed by means of ECHO-MS® System (Sciex, Framingham, MA, USA). Zero time points were prepared by adding ice-cold methanol to the mixture of the compound with cofactors before the addition of microsomes. […] Intrinsic clearance (CLint) was calculated using the following formula: [drawing 4] where V is the incubation volume per milligram of microsomal protein (µL mg^−1) and t1/2 is the microsomal half-life.

[4] = test system: GluN1/GluN2B receptors; conditions: cited from earlier work; for EC50: read-out: EC50, potentiation of GluN1/GluN2B receptor responses

SMILES: C=CCO/N=C(\C)[C@H]1CCC2C3CC=C4C[C@@H](OC(=O)CCCC(=O)O)CC[C@]4(C)C3CC[C@@]21C (stereo partly drawn) [Compound 20, 20-Oxo-pregn-5-en-3β-yl hemiglutarate O-(2-propenyl)oxime]
- h ± SEM (apparent Hill coefficient) [1]: 2.0 ± 0.2
- EC50 [1]: 12.6 ± 2.9 µM
- Emax [1]: 317 ± 43%
- PAMPA permeability Retention (mass retention) [2]: 99%
- Papp at 5 h, 100 µM [2]: 7.24 ×10⁻⁶ cm/s
- Metabolic stability in rat liver microsomes [3]: no detectable metabolism after 60 min
- half-life at 10 µM [3]: > 1 h

SMILES: C/C(=N\OCCN1CCOCC1)[C@H]1CCC2C3CC=C4C[C@@H](OC(=O)CCCC(=O)O)CC[C@]4(C)C3CC[C@@]21C (stereo partly drawn) [Compound 13, 20-Oxo-pregn-5-en-3β-yl hemiglutarate O-(3-morpholinoethyl)oxime]
- h ± SEM (apparent Hill coefficient) [1]: 2.8 ± 0.2
- EC50 [1]: 34.7 ± 4.2 µM
- Emax [1]: 111 ± 11%
- PAMPA permeability Retention (mass retention) [2]: 95%
- half-life at 10 µM [3]: > 1 h

SMILES: C[C@]12CC[C@H](OC(=O)CCCCCCC(=O)O)CC1=CCC1C2CC[C@]2(C)C(=O)CCC12 (stereo partly drawn) [Compound 8]
- Emax, potentiation of GluN1/GluN2B receptor responses [4]: 189%
- EC50 [4]: 49 µM

SMILES: C[C@]12CC[C@H](OC(=O)CCCCCCCC(=O)O)CC1=CCC1C2CC[C@]2(C)C(=O)CCC12 (stereo partly drawn) [Compound 9]
- Emax, potentiation of GluN1/GluN2B receptor responses [4]: 226%
- EC50 [4]: 32 µM

SMILES: C[C@@]12CCCC1C1CC[C@@H]3C[C@H](OC(=O)CCC(=O)O)CC[C@]3(C)C1CC2 (stereo partly drawn) [Compound 2]
- Emax, potentiation of GluN1/GluN2B receptor responses [4]: 452%
- EC50 [4]: 7.4 µM

SMILES: C/C(=N\OCc1ccccc1)[C@H]1CCC2C3CC=C4C[C@@H](OC(=O)CCCC(=O)O)CC[C@]4(C)C3CC[C@@]21C (stereo partly drawn) [Compound 21, 20-Oxo-pregn-5-en-3β-yl hemiglutarate O-(phenylmethyl)oxime]
- h ± SEM (apparent Hill coefficient) [1]: 1.7 ± 0.3
- EC50 [1]: 11.3 ± 2 µM
- Emax [1]: 403 ± 56%
- PAMPA permeability Retention (mass retention) [2]: 95%
- Papp at 5 h, 100 µM [2]: 1.82 ×10⁻⁶ cm/s
- Metabolic stability in rat liver microsomes [3]: no detectable metabolism after 60 min
- half-life at 10 µM [3]: > 1 h

SMILES: C[C@]12CC[C@H](OC(=O)CCCCCCCCC(=O)O)CC1=CCC1C2CC[C@]2(C)C(=O)CCC12 (stereo partly drawn) [Compound 10]
- Emax, potentiation of GluN1/GluN2B receptor responses [4]: 165%
- EC50 [4]: 16 µM

SMILES: C[C@]12CC[C@H](OC(=O)CCCC(=O)O)CC1=CCC1C2CC[C@]2(C)C(=O)CCC12 (stereo partly drawn) [Compound 5]
- Emax, potentiation of GluN1/GluN2B receptor responses [4]: 154%
- EC50 [4]: 151 µM

SMILES: CC[C@@H](C)[C@H]1CCC2C3CC[C@@H]4C[C@H](OS(=O)(=O)O)CC[C@]4(C)C3CC[C@@]21C (stereo partly drawn) [Compound 1]
- IC50 ([4]; read-out: IC50, inhibition of currents of GluN1/GluN2B receptors): 0.09 µM

SMILES: C[C@]12CC[C@H](OC(=O)CCCCCC(=O)O)CC1=CCC1C2CC[C@]2(C)C(=O)CCC12 (stereo partly drawn) [Compound 7]
- Emax, potentiation of GluN1/GluN2B receptor responses [4]: 187%
- EC50 [4]: 82 µM

SMILES: CO/N=C(\C)[C@H]1CCC2C3CC=C4C[C@@H](OC(=O)CCCC(=O)O)CC[C@]4(C)C3CC[C@@]21C (stereo partly drawn) [Compound 17, 20-Oxo-pregn-5-en-3β-yl hemiglutarate O-methyloxime]
- Potency relative to PES ([1]; EC50 compared with PES): over 3.5 fold
- h ± SEM (apparent Hill coefficient) [1]: 1.6 ± 0.1
- EC50 [1]: 6.1 ± 0.7 µM
- Emax [1]: 503 ± 85%
- PAMPA permeability Retention (mass retention) [2]: 95%
- Papp at 5 h, 100 µM [2]: 5.5 ×10⁻⁶ cm/s
- half-life at 10 µM [3]: > 1 h

SMILES: C/C(=N\OC(C)C)[C@H]1CCC2C3CC=C4C[C@@H](OC(=O)CCCC(=O)O)CC[C@]4(C)C3CC[C@@]21C (stereo partly drawn) [Compound 19, 20-Oxo-pregn-5-en-3β-yl hemiglutarate O-isopropyloxime]
- Modulatory profile at NMDARs [1]: not identified as PAMs; also recorded: complex, concentration-dependent activity profile
- inhibition at 3 µM [1]: 27%
- PAM effect (degree of potentiation) ([1]; at 10 µM compound): 81 ± 20%
- PAM effect (degree of potentiation) ([1]; at 30 µM compound): 169 ± 55%
- PAMPA permeability Retention (mass retention) [2]: 99%
- Metabolic stability in rat liver microsomes [3]: no detectable metabolism after 60 min
- half-life at 10 µM [3]: > 1 h

SMILES: C[C@]12CC[C@H](OC(=O)CCCCC(=O)O)CC1=CCC1C2CC[C@]2(C)C(=O)CCC12 (stereo partly drawn) [Compound 6]
- Emax, potentiation of GluN1/GluN2B receptor responses [4]: 180%
- EC50 [4]: 108 µM

SMILES: CCCO/N=C(\C)[C@H]1CCC2C3CC=C4C[C@@H](OC(=O)CCCC(=O)O)CC[C@]4(C)C3CC[C@@]21C (stereo partly drawn) [Compound 18, 20-Oxo-pregn-5-en-3β-yl hemiglutarate O-propyloxime]
- Modulatory profile at NMDARs [1]: not identified as PAMs; also recorded: complex, concentration-dependent activity profile
- inhibition at 3 µM [1]: 7%
- PAM effect (degree of potentiation) ([1]; at 10 µM compound): 75 ± 21%
- PAM effect (degree of potentiation) ([1]; at 30 µM compound): 108 ± 17%
- PAMPA permeability Retention (mass retention) [2]: 100%
- half-life at 10 µM [3]: > 1 h
